Here are results for twelve compounds from PubChem BioAssay (NCI).

Some test systems named below: ACHN renal; HCC-2998 colon; HCT-15 colon; HS 578T breast; LOX IMVI melanoma; M14 melanoma; MDA-MB-435; NCI-H460 lung; OVCAR-8 ovarian; SNB-19 CNS.
What all share (test): NCI-60 cell line screen, 48 h

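How tested: cells in 96-well plates exposed to compound for 48 hours at five concentrations. GI50 = concentration required for 50% inhibition of growth. TGI: total growth inhibition.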

Consider `COCn1c(C)c(C)c2c(=O)oc(=O)[nH]c21`, for which the TGI in the test on ACHN renal, with HCC-2998 colon, with HCT-15 colon, in the test with HS 578T breast, in the test with LOX IMVI melanoma and in the test with M14 melanoma was greater than 100 µM in each case. Also, the TGI in the test on MDA-MB-435, with NCI-H460 lung, in the test with OVCAR-8 ovarian and with SNB-19 CNS was greater than 100 µM in each case.
For the compound `COc1cc(C2c3cc4c(cc3C(O)C3CCC(=O)N23)OCO4)cc(OC)c1OC` (stereo not given), the TGI with ACHN renal, with HCC-2998 colon, with HCT-15 colon, in the test on HS 578T breast, with LOX IMVI melanoma and with M14 melanoma was greater than 100 µM in each case. Moreover, the TGI was 18 µM with MDA-MB-435, greater than 100 µM in the test with NCI-H460 lung, greater than 100 µM with OVCAR-8 ovarian and greater than 100 µM in the test on SNB-19 CNS.
`O=C1NN=C(c2ccc(Cl)cc2)CC1C1C(=O)N(c2ccccc2)N=C1c1ccccc1` (stereo not given): the TGI was greater than 100 µM in the test on ACHN renal; 91.7 µM with HCC-2998 colon; greater than 100 µM in the test on HCT-15 colon; 93.9 µM in the test on HS 578T breast; 45.9 µM in the test with LOX IMVI melanoma; greater than 100 µM in the test on M14 melanoma. Besides, the TGI in the test with MDA-MB-435 is 77.4 µM; with NCI-H460 lung it was 80.4 µM; with OVCAR-8 ovarian, greater than 100 µM; in the test with SNB-19 CNS it was greater than 100 µM.
Regarding `CCCSc1cc(Cl)c(C)cc1S(=O)(=O)n1ccnc1OCCCN(C)C`, the TGI with ACHN renal, in the test on HCC-2998 colon, in the test with HCT-15 colon, in the test with HS 578T breast, in the test on LOX IMVI melanoma and in the test on M14 melanoma was greater than 100 µM in each case. The TGI with MDA-MB-435, with NCI-H460 lung, with OVCAR-8 ovarian and in the test with SNB-19 CNS was greater than 100 µM throughout.
In the case of `O=[N+]([O-])c1ccc2c(c1)nc(Cc1ccccc1)n2C[C@@H]1CCCN2CCCCC12` (stereo not given in full), the TGI in the test on ACHN renal is greater than 100 µM; with HCC-2998 colon, 33.2 µM; in the test on HCT-15 colon, greater than 100 µM; with HS 578T breast, greater than 100 µM; with LOX IMVI melanoma, 60.2 µM; in the test on M14 melanoma, 33.1 µM. The TGI was 35.5 µM in the test with MDA-MB-435, greater than 100 µM in the test with NCI-H460 lung, greater than 100 µM in the test with OVCAR-8 ovarian and greater than 100 µM in the test on SNB-19 CNS.
Turning to `CCN(CC)CCCCCCCCNc1c2ccc(Cl)cc2nc2ccc(OC)cc12`, the GI50 in the test with ACHN renal is 1.03 µM; in the test on HCC-2998 colon, 1.77 µM; in the test on HCT-15 colon it was 0.966 µM; in the test with HS 578T breast, 2.82 µM; in the test with LOX IMVI melanoma, 1.48 µM; with M14 melanoma, 1.84 µM. The GI50 in the test with MDA-MB-435 is 1.87 µM; with NCI-H460 lung, 0.883 µM; in the test on OVCAR-8 ovarian, 1.39 µM; in the test with SNB-19 CNS, 1.81 µM. For the same compound, the TGI is 2.5 µM in the test with ACHN renal; 6.99 µM in the test with HCC-2998 colon; 2.46 µM in the test on HCT-15 colon; greater than 100 µM with HS 578T breast; 4.94 µM in the test on LOX IMVI melanoma; 3.34 µM with M14 melanoma. Further, the TGI in the test with MDA-MB-435 stood at 3.74 µM; with NCI-H460 lung, 2.56 µM; in the test with OVCAR-8 ovarian, 3.64 µM; in the test on SNB-19 CNS it was 4.63 µM.
`Cc1ccccc1N=C(N)NC#N`: the TGI in the test with ACHN renal, with HCC-2998 colon, in the test with HCT-15 colon, in the test on HS 578T breast, in the test on LOX IMVI melanoma and with M14 melanoma was greater than 100 µM throughout. For the same compound, the TGI in the test with MDA-MB-435, in the test on NCI-H460 lung, in the test on OVCAR-8 ovarian and in the test with SNB-19 CNS was greater than 100 µM each time.
On to `O=C(CCc1cccc(O)c1)NCCc1cccc(O)c1`, for which the TGI in the test with ACHN renal, with HCC-2998 colon, with HCT-15 colon, with HS 578T breast, in the test on LOX IMVI melanoma and with M14 melanoma was greater than 100 µM throughout. Moreover, the TGI with MDA-MB-435, with NCI-H460 lung, in the test with OVCAR-8 ovarian and in the test with SNB-19 CNS was greater than 100 µM throughout.
With `CCNC(=S)N/N=C/c1cc(OC)ccc1O`, the TGI with ACHN renal, in the test on HCC-2998 colon, in the test with HCT-15 colon, in the test on HS 578T breast, in the test with LOX IMVI melanoma and in the test on M14 melanoma was greater than 100 µM throughout. Also, the TGI with MDA-MB-435, with NCI-H460 lung, in the test with OVCAR-8 ovarian and in the test on SNB-19 CNS was greater than 100 µM throughout.
As to `COc1cc2c(cc1OCCCC(=O)Nc1cc(C(=O)Nc3cc(C(=O)Nc4cc(C(=O)NCCCN(C)C)n(C)c4)n(C)c3)n(C)c1)N=C[C@@H]1CCCN1C2=O`, the TGI with ACHN renal was 2.99 µM; in the test with HCC-2998 colon, 28.2 µM; with HCT-15 colon, 3.86 µM; in the test with HS 578T breast, greater than 25.2 µM; in the test with LOX IMVI melanoma, 2.26 µM; with M14 melanoma, 3.11 µM. Also, the TGI was found to be 3.48 µM in the test with MDA-MB-435, 17.6 µM in the test with NCI-H460 lung, 3.21 µM in the test with OVCAR-8 ovarian and 17.6 µM in the test with SNB-19 CNS.
With `O=C(O)CC(NC(=O)Nc1ccc([N+](=O)[O-])cc1)C(=O)Nc1ccc([N+](=O)[O-])cc1` (stereo not given), the TGI in the test on ACHN renal, in the test on HCC-2998 colon, in the test with HCT-15 colon, in the test with HS 578T breast, in the test with LOX IMVI melanoma and with M14 melanoma was greater than 100 µM throughout. For the same compound, the TGI in the test with MDA-MB-435, with NCI-H460 lung, in the test on OVCAR-8 ovarian and in the test with SNB-19 CNS was greater than 100 µM throughout.
Take `Cc1cc(NS(=O)(=O)c2ccc(NC(=O)c3ccc4nc5ccccc5c(Nc5ccc(S(=O)(=O)N=C(N)N)cc5)c4c3)cc2)no1`: the TGI with ACHN renal turned out to be 26.4 µM; with HCC-2998 colon it was 30.8 µM; in the test on HCT-15 colon, 29.3 µM; in the test with HS 578T breast, 72.7 µM; with LOX IMVI melanoma, 23.1 µM; in the test on M14 melanoma it was 34.6 µM. Also, the TGI in the test with MDA-MB-435 is 35.3 µM; with NCI-H460 lung, 34.5 µM; with OVCAR-8 ovarian it was 32.9 µM; in the test with SNB-19 CNS, 94.3 µM.
